Our source for the IC50 values is patent US5958973A, “Polyhydroxy benzoic acid derivatives and their use as neuraminidase inhibitors” (Gilead Sciences, Inc., priority 1995, dated 1999).

The target in the experiment is neuraminidase. The class given is biochemical. Conditions: in vitro enzyme inhibition; class symbols. The source says: Compositions of the invention are screened for inhibitory activity against neuraminidase by any of the conventional techniques for evaluating enzyme activity. […] Useful in vitro screens have been described in detail and will not be elaborated here.

As for `N=C(N)Nc1cc(C(=O)O)ccc1NC(=O)C(F)(F)F` [Compound 208], the IC50 (in general, the concentration that gives 50% inhibition) is 20 to 75 µM.

`CCc1cc(C(=O)O)cc(NC(=N)N)c1NC(C)=O` [Compound 213]: the IC50 lay in the range of 75 to 100 µM.
